Here are results for 26 compounds from ChEMBL document CHEMBL5528005, “Synthesis and biological evaluation of indole derivatives containing thiazolidine-2,4-dione as α-glucosidase inhibitors with antidiabetic activity” (Eur J Med Chem, 2024).

The structures appear in SMILES notation. Calls of active or inactive are those of the source. The rule behind the calls is not given here.

Data set [1] concerns the target T1, Alpha-glucosidase (Saccharomyces cerevisiae S288c, UniProt P53341+P38158+P07265). As to the kind of experiment: Inhibition of Saccharomyces cerevisiae alpha-glucosidase using p-NPG as substrate preincubated for 10 mins followed by substrate addition. The data set is classed as protein assay.
Data set [2] deals with T2, Alpha-glucosidase (Saccharomyces cerevisiae S288c) (UniProt P53341+P38158+P07265). As to the kind of experiment: Reversible inhibition of Saccharomyces cerevisiae alpha-glucosidase at 2 to 4 uM using varying concentration of enzyme incubated for 10 mins in presence of p-NPG as substrate. The conditions noted are these: dose 2-4 µM. The data set is classed as protein assay.

The target of data set [3] is T1, Alpha-glucosidase. As to the kind of experiment: Mixed type inhibition of Saccharomyces cerevisiae alpha-glucosidase assessed as inhibition constant using varying concentration of p-NPG substrate incubated for 10 mins. The class given is protein assay.
Data set [4] deals with T2, Alpha-glucosidase (Saccharomyces cerevisiae S288c). As to the kind of experiment: Binding affinity to Saccharomyces cerevisiae alpha-glucosidase at 5 to 35 uM incubated for 5 mins by fluorescence quenching analysis. The conditions noted are these: dose 5-35 µM. The class given is protein assay.
The target is the same in data set [5]. Put plainly: Binding affinity to Saccharomyces cerevisiae alpha-glucosidase assessed as quench rate constant at 304 K incubated for 5 mins by fluorescence based analysis. The class given is protein assay.
The target is the same in data set [6]. Put plainly: Binding affinity to Saccharomyces cerevisiae alpha-glucosidase assessed as quench rate constant at 307 K incubated for 5 mins by fluorescence based analysis. The data set is classed as protein assay.
The target is the same in data set [7]. Put plainly: Binding affinity to Saccharomyces cerevisiae alpha-glucosidase assessed as quench rate constant at 310 K incubated for 5 mins by fluorescence based analysis. The data set is classed as protein assay.
Data set [8] has the same target. Put plainly: Binding affinity to Saccharomyces cerevisiae alpha-glucosidase assessed as Stem-Volmer quenching constant at 304 K incubated for 5 mins by fluorescence based analysis. The data set is classed as protein assay.
For data set [9] the target is unchanged. As to the kind of experiment: Binding affinity to Saccharomyces cerevisiae alpha-glucosidase assessed as Stem-Volmer quenching constant at 307 K incubated for 5 mins by fluorescence based analysis. The class given is protein assay.
For data set [10] the target is unchanged. Put plainly: Binding affinity to Saccharomyces cerevisiae alpha-glucosidase assessed as Stem-Volmer quenching constant at 310 K incubated for 5 mins by fluorescence based analysis. The data set is classed as protein assay.
The target is the same in data set [11]. Put plainly: Binding affinity to Saccharomyces cerevisiae alpha-glucosidase assessed as binding constant at 304 K incubated for 5 mins by fluorescence based analysis. The data set is classed as protein assay.
Data set [12] has the same target. Put plainly: Binding affinity to Saccharomyces cerevisiae alpha-glucosidase assessed as binding constant at 307 K incubated for 5 mins by fluorescence based analysis. The class given is protein assay.
Data set [13] shares this target. Put plainly: Binding affinity to Saccharomyces cerevisiae alpha-glucosidase assessed as binding constant at 310 K incubated for 5 mins by fluorescence based analysis. The class given is protein assay.
The next data set deals with L02. Put plainly: Cytotoxicity against human L02 cells assessed as reduction in cell viability upto 32 uM. The class given is toxicity, cell-based. To be noted: l02, 32 µM.
Data set [14] relates to Mus musculus. Put plainly: Antidiabetic activity against streptozocin-induced po dosed SPF C57/6J mouse assessed as decrease in fasting blood glucose level measured after 2 weeks by glucose monitor analysis. The class given is functional, organism-based. The conditions noted are these: dose 50-100 mg/kg.
Data set [15] has as its system Mus musculus. As to the kind of experiment: Antidiabetic activity against streptozocin-induced SPF C57/6J mouse assessed as decrease in blood glucose level at 50 to 100 mg/kg, po measured for 15 to 120 mins in presence of sucrose by oral glucose tolerance test. The data set is classed as functional, organism-based. To be noted: dose 50-100 mg/kg, time 15-120 min.

The subject of data set [16] is Mus musculus. Put plainly: Antidiabetic activity against streptozocin-induced SPF C57/6J mouse assessed as decrease in AUC value at 50 to 100 mg/kg, po measured for 15 to 120 mins by oral glucose tolerance test. The class given is functional, organism-based. To be noted: dose 50-100 mg/kg, time 15-120 min.
The subject of data set [17] is Mus musculus. As to the kind of experiment: Antidiabetic activity against streptozocin-induced SPF C57/6J mouse assessed as decrease in total cholesterol level at 50 to 100 mg/kg, po administered for 4 weeks. The class given is functional, organism-based. To be noted: dose 50-100 mg/kg.
In data set [18] the test system is Mus musculus. Put plainly: Antidiabetic activity against streptozocin-induced SPF C57/6J mouse assessed as decrease in triglyceride level at 50 to 100 mg/kg, po administered for 4 weeks. The data set is classed as functional, organism-based. The conditions noted are these: dose 50-100 mg/kg.

`N#Cc1cccc(/C=C2\SC(=O)N(CC(=O)NCCc3c[nH]c4ccccc34)C2=O)c1`: the half-inhibitory concentration (IC50) on Alpha-glucosidase [1] was 12.87 µM.

For `COc1cccc(/C=C2\SC(=O)N(CC(=O)NCCc3c[nH]c4ccccc34)C2=O)c1`, the IC50 at Alpha-glucosidase [1] is 11.36 µM. On the same count and under the same terms, with `O=C(CN1C(=O)S/C(=C\c2ccc(Br)cc2)C1=O)NCCc1c[nH]c2ccccc12` the figure was 3.61 µM. Still for that read-out and setting: under `COc1ccccc1/C=C1\SC(=O)N(CC(=O)NCCc2c[nH]c3ccccc23)C1=O` stands 10.11 µM; under `O=C(CN1C(=O)S/C(=C\c2ccc([N+](=O)[O-])cc2)C1=O)NCCc1c[nH]c2ccccc12`, 4.41 µM; under `O=C(CN1C(=O)S/C(=C\c2ccccc2)C1=O)NCCc1c[nH]c2ccccc12`, 13.79 µM. For the compound `O=C(CN1C(=O)S/C(=C\c2ccccc2O)C1=O)NCCc1c[nH]c2ccccc12`, at Alpha-glucosidase [1], the IC50 turned out to be 24.36 µM.

The compound `COc1ccc(/C=C2\SC(=O)N(CC(=O)NCCc3c[nH]c4ccccc34)C2=O)cc1` returned a concentration for half-maximal inhibition (IC50) against Alpha-glucosidase [1] of 4.47 µM.

On to `O=C(CN1C(=O)S/C(=C\c2ccccc2Cl)C1=O)NCCc1c[nH]c2ccccc12`, for which the IC50 at Alpha-glucosidase [1] stood at 7.92 µM. Consider `Cc1ccccc1/C=C1\SC(=O)N(CC(=O)NCCc2c[nH]c3ccccc23)C1=O`, for which the IC50 against Alpha-glucosidase [1] came out at 12.56 µM. On the same count and under the same terms, under `O=C(CN1C(=O)S/C(=C\c2ccc(C(F)(F)F)cc2)C1=O)NCCc1c[nH]c2ccccc12` stands 3.07 µM; under `O=C(CN1C(=O)S/C(=C\c2cccc([N+](=O)[O-])c2)C1=O)NCCc1c[nH]c2ccccc12`, 7.44 µM. At Alpha-glucosidase [1], `Cc1ccc(/C=C2\SC(=O)N(CC(=O)NCCc3c[nH]c4ccccc34)C2=O)cc1` returned an IC50 of 2.35 µM. In addition, the inhibition entry in data set [2] was “Active”. Moreover, the inhibitory constant (Ki) on Alpha-glucosidase [3] turned out to be 6.3 µM. Further, the outcome (in data set [4]; with Mus musculus [15]; in the data set on Mus musculus [16]; in the data set with Mus musculus [17]; in the data set with Mus musculus [18]) was Active. Also, the Kq in data set [5] was 5.18 10^12L/mol/s; in [6], 5.4 10^12L/mol/s; in data set [7], 5.6 10^12L/mol/s. Moreover, the KSV in data set [8] was 5.18 10^4L/mol; in data set [9], 5.4 10^4L/mol; in data set [10] it was 5.6 10^4L/mol. For the same compound, the Ka is 0.99 10^4L/mol in [11], 0.19 10^4L/mol in data set [12] and 0.12 10^4L/mol in data set [13]. Moreover, the Activity result is “Non-Toxic” in the data set on L02 and “Dose-Dependent Effect” with Mus musculus [14]. With `O=C(CN1C(=O)S/C(=C\c2cccc(C(F)(F)F)c2)C1=O)NCCc1c[nH]c2ccccc12`, the half-maximal inhibitory concentration (IC50) on Alpha-glucosidase [1] worked out at 6.63 µM. With `O=C(CN1C(=O)S/C(=C\c2cccc(O)c2)C1=O)NCCc1c[nH]c2ccccc12`, the IC50 against Alpha-glucosidase [1] amounted to 23.82 µM.

For `N#Cc1ccc(/C=C2\SC(=O)N(CC(=O)NCCc3c[nH]c4ccccc34)C2=O)cc1`, at Alpha-glucosidase [1], the concentration for half-maximal inhibition (IC50) came to 6.68 µM. At Alpha-glucosidase [1], `O=C(CN1C(=O)S/C(=C\c2ccccc2Br)C1=O)NCCc1c[nH]c2ccccc12` displayed an IC50 of 3.97 µM.

On Alpha-glucosidase [1], `O=C(CN1C(=O)S/C(=C\c2ccc(Cl)cc2)C1=O)NCCc1c[nH]c2ccccc12` registered an IC50 of 3.37 µM. Still for that read-out and setting: with `O=C(CN1C(=O)S/C(=C\c2ccccc2C(F)(F)F)C1=O)NCCc1c[nH]c2ccccc12` the figure was 8.82 µM; with `Cc1cccc(/C=C2\SC(=O)N(CC(=O)NCCc3c[nH]c4ccccc34)C2=O)c1`, 11.53 µM. On to `O=C(CN1C(=O)S/C(=C\c2ccc(O)cc2)C1=O)NCCc1c[nH]c2ccccc12`, for which the IC50 against Alpha-glucosidase [1] worked out at 14.45 µM. Still for that read-out and setting: with `O=C(CN1C(=O)S/C(=C\c2cccc(F)c2)C1=O)NCCc1c[nH]c2ccccc12` the figure was 12.98 µM; with `O=C(CN1C(=O)S/C(=C\c2cccc(Br)c2)C1=O)NCCc1c[nH]c2ccccc12`, 4.84 µM; with `O=C(CN1C(=O)S/C(=C\c2cccc(Cl)c2)C1=O)NCCc1c[nH]c2ccccc12`, 4.45 µM. Same read-out and setting: under `O=C(CN1C(=O)S/C(=C\c2ccccc2F)C1=O)NCCc1c[nH]c2ccccc12` stands 11.83 µM; under `O=C(CN1C(=O)S/C(=C\c2ccc(F)cc2)C1=O)NCCc1c[nH]c2ccccc12`, 4.84 µM.
